Starred links: 1 amine or outer side, 2 acyl side, 3 side chain; linkers in the order of their positions; H or OH if unused. Positions of bridges follow the written chain, without caps; N, C: chain ends. Non-standard residues stand in square brackets, D forms with d. Residues, ends and D or L forms follow the SMILES beside them. *: point of attachment. hPhe(3-Cl-4-CF3) = N[C@@H](CCc1ccc(C(F)(F)F)c(Cl)c1)C(=O)O; hPhe(3-F,4-CF3) = N[C@@H](CCc1ccc(C(F)(F)F)c(F)c1)C(=O)O; NMePhe(4-CF3) = CN[C@@H](Cc1ccc(C(F)(F)F)cc1)C(=O)O; NMePhe(4-Cl) = CN[C@@H](Cc1ccc(Cl)cc1)C(=O)O; NMedβ3hAla = C[C@H](CC(=O)[*:2])N(C)[*:1]; NMeGly(cPent) = CN[C@H](C(=O)O)C1CCCC1; NMeAla(cPr) = CN[C@@H](CC1CC1)C(=O)O; NMeCha = CN[C@@H](CC1CCCCC1)C(=O)O; NMeChg = CN[C@H](C(=O)O)C1CCCCC1; NMeI = CC[C@H](C)[C@H](NC)C(=O)O; NMeD = CN[C@@H](CC(=O)O)C(=O)O; NMeL = CN[C@@H](CC(C)C)C(=O)O; NMeV = CN[C@H](C(=O)O)C(C)C; d(β3hA) = C[C@@H](N)CC(=O)O; Azetidin(1-yl) = C1CN(*)C1; NMeS = CN[C@@H](CO)C(=O)O; NMeA = CN[C@@H](C)C(=O)O; Piperidide = C1CCN(*)CC1; Pyrrolidide = C1CCN(*)C1; Ac5c = NC1(C(=O)O)CCCC1; Aze = O=C(O)[C@@H]1CCN1; CH2CMe2OH = CC(C)(O)C*; Cyclobutyl = C1CC(*)C1; Aib = CC(C)(N)C(=O)O; Cyclopropyl = C1CC1*; NEtG = CCNCC(=O)O; Sar = CNCC(=O)O; Propyl = CCC*
Test system: Human pancreatic cancer cell line AsPC-1
Experiment: Measurement of AsPC-1 cell growth inhibition (AsPC-1 CGI)
Assay type: cell-based
Settings: 96 h
Outline: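 AsPC-1 cells in 15% FBS RPMI-1640 were exposed to test compound for 96 hours at 37° C, with CellTiter-Glo as endpoint.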

IC50 | SMILES
20 to 50 nM | CCCOC[C@H]1C(=O)N(C)CC(=O)N[C@@H](CCc2ccc(C(F)(F)F)c(F)c2)C(=O)N2CCC[C@H]2C(=O)NC2(CCCC2)C(=O)N(C)[C@@H]([C@@H](C)CC)C(=O)N(C)[C@H](C(=O)N2CCCC2)CC(=O)N(C)[C@@H](CC(C)C)C(=O)N[C@@H]([C@@H](C)CC)C(=O)N(C)[C@@H](C)C(=O)N2CC[C@H]2C(=O)N1C [Compound 684] ([NMeL]I[NMeA][Aze][NMeS](Propyl)[Sar][hPhe(3-F,4-CF3)]P[Ac5c][NMeI][NMeD]-Pyrrolidide; lactam N-11)
20 to 50 nM | CCCOC[C@H]1C(=O)N(C)CC(=O)N[C@@H](CCc2ccc(C(F)(F)F)c(F)c2)C(=O)N2CCC[C@H]2C(=O)NC2(CCCC2)C(=O)N(C)[C@@H]([C@@H](C)CC)C(=O)N(C)[C@H](C)CC(=O)N(C)[C@@H](CC(C)C)C(=O)N[C@@H]([C@@H](C)CC)C(=O)N(C)[C@@H](C)C(=O)N2CC[C@H]2C(=O)N1C [Compound 694] (cyclo([Ac5c][NMeI][NMedβ3hAla][NMeL]I[NMeA][Aze][NMeS](Propyl)[Sar][hPhe(3-F,4-CF3)]P))
100 to 500 nM | CC[C@H](C)[C@@H]1NC(=O)[C@H](CC(C)C)N(C)C(=O)C[C@@H](C(=O)N2CCCC2)NC(=O)[C@H](C2CCCC2)N(C)C(=O)C2(CCCC2)NC(=O)[C@@H]2CCCN2C(=O)[C@H](CCc2ccc(C(F)(F)F)c(Cl)c2)NC(=O)CN(C)C(=O)[C@H](CC2CCCCC2)N(C)C(=O)[C@@H]2CCN2C(=O)[C@H](C)N(C)C1=O [Compound 700] ([NMeL]I[NMeA][Aze][NMeCha][Sar][hPhe(3-Cl-4-CF3)]P[Ac5c][NMeGly(cPent)]D-Pyrrolidide; lactam N-11)
100 to 500 nM | CC[C@H](C)[C@@H]1NC(=O)[C@H](C(C)C)N(C)C(=O)C[C@@H](C)NC(=O)[C@H](CC(C)C)N(C)C(=O)C(C)(C)NC(=O)[C@H](CC(C)C)N(C)C(=O)[C@H](CCc2ccc(C(F)(F)F)c(Cl)c2)NC(=O)CN(C)C(=O)[C@H](Cc2ccc(Cl)cc2)N(C)C(=O)CN(C)C(=O)CN(C)C1=O [Compound 740] (cyclo([Aib][NMeL][d(β3hA)][NMeV]I[Sar][Sar][NMePhe(4-Cl)][Sar][hPhe(3-Cl-4-CF3)][NMeL]))
100 to 500 nM | CC[C@H](C)[C@@H]1NC(=O)[C@H](C)N(C)C(=O)C[C@@H](C)NC(=O)[C@H](C2CCCC2)N(C)C(=O)C2(CCCC2)NC(=O)[C@@H]2CCCN2C(=O)[C@H](CCc2ccc(C(F)(F)F)c(Cl)c2)NC(=O)CN(C)C(=O)[C@H](Cc2ccc(C(F)(F)F)cc2)N(C)C(=O)[C@@H]2CCCN2C(=O)CN(C)C1=O [Compound 749] (cyclo([Ac5c][NMeGly(cPent)][d(β3hA)][NMeA]I[Sar]P[NMePhe(4-CF3)][Sar][hPhe(3-Cl-4-CF3)]P))
100 to 500 nM | CC[C@H](C)[C@@H]1NC(=O)[C@H](CC2CC2)N(C)C(=O)C[C@@H](C)NC(=O)[C@H](C(C)C)N(C)C(=O)C2(CCCC2)NC(=O)[C@@H]2CCCN2C(=O)[C@H](CCc2ccc(C(F)(F)F)c(Cl)c2)NC(=O)CN(C)C(=O)[C@H](CC2CCCCC2)N(C)C(=O)[C@@H]2CCN2C(=O)[C@H](C)N(C)C1=O [Compound 771] (cyclo([Ac5c][NMeV][d(β3hA)][NMeAla(cPr)]I[NMeA][Aze][NMeCha][Sar][hPhe(3-Cl-4-CF3)]P))
20 to 50 nM | CCCOC[C@H]1C(=O)N(C)CC(=O)N[C@@H](CCc2ccc(C(F)(F)F)c(F)c2)C(=O)N2CCC[C@H]2C(=O)NC2(CCCC2)C(=O)N(C)[C@@H](C2CCCC2)C(=O)N(C)[C@H](C)CC(=O)N(C)[C@@H](CC(C)C)C(=O)N[C@@H]([C@@H](C)CC)C(=O)N(C)[C@@H](C)C(=O)N2CC[C@H]2C(=O)N1C [Compound 776] (cyclo([Ac5c][NMeGly(cPent)][NMedβ3hAla][NMeL]I[NMeA][Aze][NMeS](Propyl)[Sar][hPhe(3-F,4-CF3)]P))

More lines, now with the values behind:

SMILES | IC50
CC[C@H](C)[C@@H]1NC(=O)[C@H](CC(C)C)N(C)C(=O)C[C@@H](C(=O)N2CCCCC2)N(C)C(=O)[C@H](C(C)C)N(C)C(=O)C2(CCCC2)NC(=O)[C@@H]2CCCN2C(=O)[C@H](CCc2ccc(C(F)(F)F)c(Cl)c2)NC(=O)CN(C)C(=O)[C@H](CC2CCCCC2)N(C)C(=O)[C@@H]2CCN2C(=O)[C@H](COC2CC2)N(C)C1=O [Compound 676] ([NMeL]I[NMeS](Cyclopropyl)[Aze][NMeCha][Sar][hPhe(3-Cl-4-CF3)]P[Ac5c][NMeV][NMeD]-Piperidide; lactam N-11) | 100 to 500 nM
CC[C@H](C)[C@@H]1NC(=O)[C@H](CC(C)C)N(C)C(=O)C[C@@H](C(=O)N(C)C)NC(=O)[C@H](C2CCCC2)N(C)C(=O)C2(CCCC2)NC(=O)[C@@H]2CCCN2C(=O)[C@H](CCc2ccc(C(F)(F)F)c(Cl)c2)NC(=O)CN(C)C(=O)[C@H](CC2CCCCC2)N(C)C(=O)[C@@H]2CCN2C(=O)[C@H](C)N(C)C1=O [Compound 677] ([NMeL]I[NMeA][Aze][NMeCha][Sar][hPhe(3-Cl-4-CF3)]P[Ac5c][NMeGly(cPent)]D-NMe2; lactam N-11) | 50 to 100 nM
CC[C@H](C)[C@@H]1NC(=O)[C@H](CC(C)C)N(C)C(=O)C[C@@H](C(=O)N2CCCCC2)N(C)C(=O)[C@H](C(C)C)N(C)C(=O)C2(CCCC2)NC(=O)[C@@H]2CCCN2C(=O)[C@H](CCc2ccc(C(F)(F)F)c(Cl)c2)NC(=O)CN(C)C(=O)[C@H](Cc2ccc(Cl)cc2)N(C)C(=O)[C@@H]2CCN2C(=O)[C@H](C)N(C)C1=O [Compound 680] ([NMeL]I[NMeA][Aze][NMePhe(4-Cl)][Sar][hPhe(3-Cl-4-CF3)]P[Ac5c][NMeV][NMeD]-Piperidide; lactam N-11) | 100 to 500 nM
CC[C@H](C)[C@@H]1NC(=O)[C@H](CC(C)C)N(C)C(=O)C[C@@H](C(=O)N2CCC2)N(C)C(=O)[C@H](C2CCCC2)N(C)C(=O)C2(CCCC2)NC(=O)[C@@H]2CCCN2C(=O)[C@H](CCc2ccc(C(F)(F)F)c(Cl)c2)NC(=O)CN(CC)C(=O)[C@H](CC2CCCCC2)N(C)C(=O)[C@@H]2CCN2C(=O)[C@H](C)N(C)C1=O [Compound 726] ([NMeL]I[NMeA][Aze][NMeCha][NEtG][hPhe(3-Cl-4-CF3)]P[Ac5c][NMeGly(cPent)][NMeD]-{Azetidin(1-yl)}; lactam N-11) | 20 to 50 nM
CC[C@H](C)[C@@H]1NC(=O)[C@H](COC2CCC2)N(C)C(=O)C[C@@H](C(=O)N2CCCCC2)N(C)C(=O)[C@H](C(C)C)N(C)C(=O)C2(CCCC2)NC(=O)[C@@H]2CCCN2C(=O)[C@H](CCc2ccc(C(F)(F)F)c(Cl)c2)NC(=O)CN(C)C(=O)[C@H](CC2CCCCC2)N(C)C(=O)[C@@H]2CCN2C(=O)[C@H](C)N(C)C1=O [Compound 755] ([NMeS](Cyclobutyl)I[NMeA][Aze][NMeCha][Sar][hPhe(3-Cl-4-CF3)]P[Ac5c][NMeV][NMeD]-Piperidide; lactam N-11) | 100 to 500 nM
CC[C@H](C)[C@@H]1NC(=O)[C@H](CC(C)C)N(C)C(=O)C[C@@H](C(=O)N2CCCCC2)N(C)C(=O)[C@H](C2CCCCC2)N(C)C(=O)C2(CCCC2)NC(=O)[C@H](COCC(C)(C)O)N(C)C(=O)[C@H](CCc2ccc(C(F)(F)F)c(Cl)c2)NC(=O)CN(C)C(=O)[C@H](CC2CCCCC2)N(C)C(=O)CN(C)C(=O)CN(C)C1=O [Compound 789] ([NMeL]I[Sar][Sar][NMeCha][Sar][hPhe(3-Cl-4-CF3)][NMeS](CH2CMe2OH)[Ac5c][NMeChg][NMeD]-Piperidide; lactam N-11) | 100 to 500 nM

Source: patent US12371454B2, “Cyclic peptide compound having Kras inhibitory action” (priority 2019, dated 2025)
